These results are taken from patent US12324841B2, “Methods of treating cancer with a combination of an anti-PD-1 antibody and an anti-tissue factor antibody-drug conjugate” (GENMAB A/S, priority 2018, dated 2025).

Entries after “also recorded” stand apart in the source; their conditions may differ. Non-standard residues stand in square brackets, D forms with d. Residues, ends and D or L forms follow the SMILES beside them. *: point of attachment. Dolaproine = CO[C@@H]([C@@H]1CCCN1)[C@@H](C)C(=O)O; Dil = CC[C@H](C)[C@H](NC)[C@@H](CC(=O)O)OC; X1 = C[C@@H](N*)[C@@H](O)c1ccccc1; NMeV = CN[C@H](C(=O)O)C(C)C

The test system of one series is T cells. Briefly: T cell activation in CSFE labeled PBMCs fed killed MDA-MB-231 cells, with or without pembrolizumab. The class given is cell-based, human. To be noted: 48 hours; for T cell proliferation (CSFE dilution) / production of IFNγ / production of IL12p70: without pembrolizumab. As for the experimental part: FIG. 8A-8C is a series of graphs in which Tissue Factor positive MDA-MB-231 cells killed with various agents were fed to CSFE labeled human peripheral blood mononuclear cells (PBMCs) in the presence or absence of the PD1 targeting antibody pembrolizumab for 48 hours and T cells activation assessed by A) decreased CSFE fluorescent indicative of T cell proliferation and B) and C) cytokine production.
Induction of the innate immune response following exposure to cancer cells undergoing ICD sets up secondary T cell activation, which can be enhanced by concomitant pembrolizumab treatment.

In series [1] the test system is HeLa cells. Briefly: Western blot analysis of ER stress in HeLa cells treated with MMAE. Type of series: cell-based. To be noted: 100 nM MMAE for 16 hours. As to the method: HeLa cells, a cervical cancer cell line, were cultured in Minimum Essential Medium (MEM) with 10% FBS, 10 mM HEPES, 1 mM sodium pyruvate, 2 mM L-glutamine, penicillin (100U/ml), and streptomycin (100 μg/ml). HeLa cells were treated with 100 nM MMAE for 16 hours and harvested in radioimmunoprecipitation assay buffer (RIPA) buffer for western blot analysis. […] Severe ER stress is a prerequisite to the exposure of pro-phagocytic signals on the surface of tumor cells, and can be indicated by activation of JNK signaling by phosphorylated IRE1.

For series [2], the system named is HeLa cells. Nature of the series: Imaging of RFP-labeled tubulin and ER-binding dye in HeLa cells treated with MMAE. To be noted: 100 nM MMAE. The class given is cell-based. As to the method:
Treatment of HeLa cells with MMAE led to disassembly of the microtubule network and subsequent ER mislocalization. HeLa cells were transduced with a baculovirus encoding RFP-labeled Tubulin (CellLight Tubulin-RFP, ThermoFisher Scientific) and an ER-binding dye (ER-ID Green, Enzo Life Sciences). Cells were treated with 100 nM MMAE and imaged over time in the present of MMAE. Within 2 hours, fragmentation and disassembly of the microtubule network became evident, concurrent with the breakdown of the perinuclear organized ER lattice (FIGS. 2A and 2B). The condensed and mislocalized ER skeleton indicated severe ER stress within 8 hours.

The subject of series [3] is HeLa cells. Nature of the series: ATP and HMGB1 secretion from HeLa cells treated with MMAE. Type of series: cell-based. To be noted: 100 nM MMAE, over 24 hours, vs untreated HeLa cells. From the text: Induction of ICD is also characterized by the secretion of ATP and HMGB1. Extracellular ATP serves as a strong chemotactic signal, promoting immune cell migration to the tumor site. Upon arrival, extracellular HMGB1 signals through various pro-inflammatory receptors (TLR2, TLR4, RAGE) to activate antigen-presenting cells, thereby promoting immune activity within the tumor.

Series [4] concerns murine tumor cells that stably express human TF. Briefly: Syngeneic tumor model: immunization with drug-killed human TF positive murine tumor cells, then tumor challenge. Type of series: in vivo, Balb/c mice. To be noted: mice immunized with tumor cells killed by 1-5 μg per ml tisotumab vedotin or 100 nM MMAE. As for the experimental part:
Mouse tumor cells are transfected with plasmid constructs encoding human tissue factor (TF) and sgRNA-guided Cas9 nuclease (sgRNA/Cas9) to generate a murine cell line that expresses the human TF. Fluorescence activated cell sorting (FACS) yields a clonal population of murine tumor cells that stably express human TF, these cells are then treated with 1 μg to 5 μg per ml of tisotumab vedotin or 100 nM of MMAE for 4 days. In order to prepare dying cells for immunization, treated murine tumor cells are overlaid atop Histopaque, and centrifuged at 2000 g for 30 minutes. Dead and dying cells are pelleted underneath the Histopaque layer, and viability assessed by trypan blue exclusion. A sample with approximately <20% live cells as measured by trypan blue exclusion is obtained. Flash-frozen tumor cells are prepared by submerging the cells in liquid nitrogen for 10 seconds, followed by immersion in 37° C. water until completely thawed. The liquid nitrogen freeze-thaw process is repeated 5 times. Dead and dying human TF positive tumor cells are resuspended in phosphate buffered saline (PBS) and 2×10^6 cells are injected into the peritoneum of immune-competent Balb/c mice. Seven days later, mice receive a second immunization with dead and dying cells prepared in the same manner.
Fourteen days after initial immunization with the dead and dying human TF positive tumor cells, mice are subcutaneously implanted with 5×10^6 wild-type tumor cells and monitored for tumor growth. […] As these effects occur in the absence of any administered therapeutic agent, the administration of cells killed by tisotumab vedotin or MMAE is sufficient to generate long-lasting protective immune memory against subsequent tumor cell challenge. Protective immune memory is amplified by treating these mice with tisotumab vedotin in combination with an antibody that binds to murine PD-1.

In series [5] the test system is Tissue Factor positive cell lines. Nature of the series: Cell death and release of ATP and HMGB1 from Tissue Factor positive cell lines. Type of series: cell-based. The text has this: Auristatin ADC payloads disrupt the microtubule networks resulting in altered ER localization and function, which ultimately results in ER stress.
Series [6] deals with HPAFII (pancreatic carcinoma). Nature of the series: Western blot analysis of ER stress induction in HPAFII cells. Type of series: cell-based. To be noted: 18 hours (legend: 16 hours). As to the method:
(§1) Induction of cell death and release of ICD danger signals occurs concomitant with initiation of an ER stress response. Two Tissue Factor positive cell lines, HPAFII (pancreatic carcinoma) and MDA-MB-231 (breast cell carcinoma) were exposed to tisotumab vedotin ADC, an Isotype-MMAE ADC (H00-MMAE, IgG1 MMAE), or free MMAE for 18 hours and induction of ER stress monitored by western blot analysis. Phosphorylation of inositol-requiring transmembrane kinase/endonuclease 1 (IRE1) was detected after treatment with tisotumab vedotin ADC or MMAE free drug (FIG. 6). […] The ability for auristatins to prime the immune system to recognize tumor antigens opens the door for a myriad of combinatorial therapeutic options.

Series [7] deals with MDA-MB-231 (breast cell carcinoma). Briefly: Western blot analysis of ER stress induction in MDA-MB-231 cells. To be noted: MDA-MB-231, 18 hours (legend: 16 hours). Type of series: cell-based. As to the method:
as §1

The subject of series [8] is CD14+ monocyte/macrophages. Briefly: Monocyte/macrophage activation in PBMCs fed killed MDA-MB-231 cells. Type of series: cell-based, human. The text has this:
FIGS. 7A and 7B is a series of graphs in which Tissue Factor positive MDA-MB-231 cells killed with various agents were fed to human peripheral blood mononuclear cells (PBMCs) and immune activation assessed by increased expression of activations markers on innate CD14+ monocyte/macrophages and induction of chemokine and cytokine production.
Immunogenic cell death, as mediated by MMAE, is regulated cell death that activates adaptive immune responses against antigens from dead and dying tumor cells, and allows for the generation of robust innate immune cell activation and subsequent cytotoxic T cell responses targeted towards specific tumor cell antigens. […] Furthermore, these monocyte/macrophages conditioned by ICD-killed cells promote activation of T cells, as evidenced by production of signature inflammatory cytokines associated with cytotoxic T cell responses.

The test system of series [9] is MDA-MB-231 cells (breast adenocarcinoma). Nature of the series: MDA-MB-231 xenograft model in humanized NSG mice. To be noted: pembrolizumab alone, first dose 10 mg/kg, then 5 mg/kg every five days, IP. Type of series: in vivo. As for the experimental part: Mice were subcutaneously inoculated with 5×10^6 MDA-MB-231 cells (breast adenocarcinoma; American Tissue Culture Collection (ATCC), cat. no. HTB-26), in 100 μL phosphate-buffered saline (PBS). Before inoculation, cells were cultured in DMEM with high glucose and HEPES without L-glutamine (Lonza, cat. no. BE12-[…]), 10% (v/v) donor bovine serum with iron New Zealand Origin (Thermo Fisher Scientific, DBSI, cat. no. 10371-029), 2 mM L-glutamine (Lonza, cat. no. BE17-[…]), 1 mM Na-pyruvate (Lonza, cat. no. BE13-[…]), MEM non-essential amino acids (Life Technologies, cat. no. 11140) and 1% (v/v) penicillin/streptomycin (Lonza, cat. no. DE17-[…]), in CellSTACK culture chambers (Corning, cat. no. 3313). Tumor size was determined by caliper measurement at least two times a week and tumor volume was calculated as 0.52×length×width^2. […] The first dose of the anti-PD-1 antibody (i.e., pembrolizumab) was 10 mg/kg, followed by 5 mg/kg every five days for a maximum of six treatments. […] The IgG1 isotype control antibody is the b12 antibody which is known to bind to HIV-1 gp120. […] Mice were housed in individually ventilated (IVC) cages, five mice per cage and identified by ear tags. […] Statistical comparison of tumor burden was performed using Mann-Whitney analysis on the last day that all treatment groups were intact. Kaplan-Meier analysis was performed based on tumor volume (>500 mm^3).

Series [10] concerns advanced cervical cancer. To be noted: Pembrolizumab 200 mg Q3W, 82 patients; cited from earlier work.
For series [11] the following is noted: managed with interruptions of pembrolizumab, corticosteroids and/or other supportive care; cited from earlier work.
In series [12] the test system is advanced cervical cancer. To be noted: in combination with chemotherapy; cited from earlier work.
Where [13] appears, read: compared to IgG1-MMAE ADC or tisotumab alone.

Regarding “tisotumab: anti-TF antibody 011; heavy chain variable region SEQ ID NO:7, light chain variable region SEQ ID NO:8”, in the series with T cells, the “T cell proliferation (CSFE dilution)” value is “did not elicit these responses”, the “production of IFNγ” value is “did not elicit these responses” and the “production of IL12p70” value is “did not elicit these responses”.
`CC[C@H](C)[C@@H]([C@@H](CC(=O)N1CCC[C@H]1[C@H](OC)[C@@H](C)C(=O)N[C@H](C)[C@@H](O)c1ccccc1)OC)N(C)C(=O)[C@@H](NC(=O)[C@@H](NC)C(C)C)C(C)C` [MMAE, Monomethyl auristatin E, reference compound] (H-[NMeV]V[Dil][Dolaproine]-X1): in the series on HeLa cells [1], the “phosphorylation of IRE1” value is reported as “led to phosphorylation of the serine threonine kinase IRE1”; the “phosphorylation of JNK” value was “elicited severe ER stress by phosphorylation of IRE1 and JNK”. Moreover, in the series with HeLa cells [2], the “time until fragmentation and disassembly of the microtubule network, with breakdown of the perinuclear ER lattice” value was at most 2 h; the “time until severe ER stress (condensed and mislocalized ER skeleton)” value is at most 8 h. Also, in the series on HeLa cells [3], the “secretion of ATP” value was “increased secretion of ATP and HMGB1”; the “secretion of HMGB1” value was “increased secretion of ATP and HMGB1”. Besides, in [4], the “survival after challenge with wild-type tumor cells” value was “increased survival” and the “tumor growth after challenge with wild-type tumor cells” value is given as “delayed tumor growth”. In addition, the ATP release/secretion entry in [5] (FIG. 5A) is “drove robust A) ATP secretion; also recorded: specific to tisotumab vedotin ADC and MMAE treatment”. In [5] (FIG. 5C), the HMGB1 release/secretion entry is “drove robust A) ATP secretion and C) HMGB1 release; also recorded: specific to tisotumab vedotin ADC and MMAE treatment”. Further, in [6], the “ATF4 cleavage (PERK pathway)” value is recorded as “upregulation of ATF4 cleavage”, the “phosphorylation of IRE1” value is reported as “detected” and the “phosphorylation of JNK” value was “increased phosphorylation”. Besides, in series [7], the “ATF4 cleavage (PERK pathway)” value is listed as “upregulation of ATF4 cleavage”, the “phosphorylation of IRE1” value was “detected” and the “phosphorylation of JNK” value is recorded as “increased phosphorylation”. Besides, the “chemotactic and inflammatory mediators from monocyte/macrophages after uptake of dead cells” value in series [8] was “elicit strong chemotactic and inflammatory mediators”. Moreover, in [8] (setting [13]), the “monocyte/macrophage activation, CD86 expression by flow cytometry” value is reported as “drove monocyte/macrophage activations” and the “release of innate chemokines including MIP 1β” value is “induced release of innate chemokines including MIP 1β”. Besides, in the series with T cells, the “T cell proliferation (CSFE dilution)” value is given as “drove T cell proliferation”; the “production of IFNγ” value is “production of T cell specific cytokines such as IL12P70 and IFNγ”; the “production of IL12p70” value is “production of T cell specific cytokines such as IL12P70 and IFNγ”.
“pembrolizumab: anti-PD-1 antibody, a checkpoint inhibitor; heavy chain SEQ ID NO:33 and light chain SEQ ID NO:34 [reference compound]”: in [9], the “tumor burden as assessed by tumor volume” value is recorded as “hardly reduced tumor burden”. The “T cell proliferation driven by tisotumab vedotin or MMAE killed cells, effect of added pembrolizumab” value with T cells (2 mg/ml of pembrolizumab) is “enhanced”. For the same compound, in the series with T cells (concomitant pembrolizumab), the “production of IFNγ after tisotumab vedotin or MMAE killed cells, effect of added pembrolizumab” value was “increased by concomitant pembrolizumab treatment” and the “production of IL12p70 after tisotumab vedotin or MMAE killed cells, effect of added pembrolizumab” value is “increased by concomitant pembrolizumab treatment”. Moreover, in the series on advanced cervical cancer [10], the objective response rate is reported as 12%. The “reversibility of immune-related AEs (irAEs)” value in series [11] is given as “most irAEs were reversible”.
For the compound Bevacizumab: an anti-VEGF antibody, in the series with advanced cervical cancer [12], the “overall survival in clinical trials” value was “improved overall survival”.
